Biological target: Lysine-specific demethylase 6B (Homo sapiens, UniProt O15054)
Test: Inhibition of KDM6B (unknown origin) expressed in Escherichia coli using H3 (21 to 44 residues) K27Me3-GGK-Biotin JMJD3 Cognate Ligand/10 uM alpha-ketoglutarate as substrate/cofactor preincubated for 5 mins followed by substrate addition measured after 5 mins by alphascreen assay

Lysine-specific demethylase 6B, sequence (O15054 whole entry, the tested form may be a part): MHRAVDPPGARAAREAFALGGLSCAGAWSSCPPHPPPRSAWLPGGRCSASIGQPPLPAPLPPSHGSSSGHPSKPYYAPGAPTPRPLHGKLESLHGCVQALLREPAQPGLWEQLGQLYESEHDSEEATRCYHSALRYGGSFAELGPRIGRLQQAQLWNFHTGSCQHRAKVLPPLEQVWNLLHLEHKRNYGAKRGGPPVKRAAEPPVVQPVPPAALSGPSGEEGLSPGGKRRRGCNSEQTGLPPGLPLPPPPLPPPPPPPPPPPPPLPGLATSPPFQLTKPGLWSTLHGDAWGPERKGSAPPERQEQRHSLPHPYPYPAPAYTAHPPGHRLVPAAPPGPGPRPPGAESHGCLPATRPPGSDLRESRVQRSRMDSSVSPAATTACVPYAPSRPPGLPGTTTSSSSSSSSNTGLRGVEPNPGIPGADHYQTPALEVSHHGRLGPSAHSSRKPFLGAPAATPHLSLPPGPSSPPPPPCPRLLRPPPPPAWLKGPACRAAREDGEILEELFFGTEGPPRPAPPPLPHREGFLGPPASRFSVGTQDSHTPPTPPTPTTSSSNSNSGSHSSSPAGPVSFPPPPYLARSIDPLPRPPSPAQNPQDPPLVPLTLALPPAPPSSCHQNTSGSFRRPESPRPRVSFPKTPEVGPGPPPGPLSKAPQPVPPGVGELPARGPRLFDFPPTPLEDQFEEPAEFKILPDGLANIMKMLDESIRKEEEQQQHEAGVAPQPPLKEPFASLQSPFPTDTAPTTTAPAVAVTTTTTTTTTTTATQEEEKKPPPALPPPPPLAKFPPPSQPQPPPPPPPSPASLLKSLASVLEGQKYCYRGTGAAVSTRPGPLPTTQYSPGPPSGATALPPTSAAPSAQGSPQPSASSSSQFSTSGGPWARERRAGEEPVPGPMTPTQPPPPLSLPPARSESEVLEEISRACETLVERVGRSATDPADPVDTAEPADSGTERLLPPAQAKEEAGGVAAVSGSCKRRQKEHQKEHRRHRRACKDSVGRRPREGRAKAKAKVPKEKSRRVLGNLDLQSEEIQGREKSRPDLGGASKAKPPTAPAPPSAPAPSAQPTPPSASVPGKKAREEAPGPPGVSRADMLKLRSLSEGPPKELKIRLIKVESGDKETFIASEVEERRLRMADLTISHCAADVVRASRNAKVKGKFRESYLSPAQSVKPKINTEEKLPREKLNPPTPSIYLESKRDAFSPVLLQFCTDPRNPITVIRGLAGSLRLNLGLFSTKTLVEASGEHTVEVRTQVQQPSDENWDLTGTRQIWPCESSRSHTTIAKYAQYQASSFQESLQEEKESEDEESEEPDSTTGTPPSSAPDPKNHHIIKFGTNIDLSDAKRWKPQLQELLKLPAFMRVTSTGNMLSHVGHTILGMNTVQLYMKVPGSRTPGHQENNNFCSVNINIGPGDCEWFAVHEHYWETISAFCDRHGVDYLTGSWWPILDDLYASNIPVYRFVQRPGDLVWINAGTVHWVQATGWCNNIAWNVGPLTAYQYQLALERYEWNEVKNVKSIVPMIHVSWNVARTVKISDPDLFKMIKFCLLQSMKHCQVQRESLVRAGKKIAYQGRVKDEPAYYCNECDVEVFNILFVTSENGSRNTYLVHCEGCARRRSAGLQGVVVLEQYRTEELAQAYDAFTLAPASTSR

SMILES	IC50 [µM]
O=C(O)c1ccnc(-c2cc(NC(=O)c3ccc(O)cc3)ccc2O)c1	27
COCC(=O)Nc1ccc(O)c(-c2cc(C(=O)O)ccn2)c1	> 100
Cc1cc(C(=O)Nc2ccc(O)c(-c3cc(C(=O)O)ccn3)c2)no1	31
CC(=O)Nc1ccc(O)c(-c2cc(C(=O)O)ccn2)c1	> 100
COc1cccc(CC(=O)Nc2ccc(O)c(-c3cc(C(=O)O)ccn3)c2)c1	16

Biological target: Hypoxia-inducible factor 1-alpha inhibitor (Homo sapiens, UniProt Q9NWT6)
Test: Inhibition of N-terminal His6-tagged full-length FIH (unknown origin) expressed in Escherichia coli Rosetta 2(DE3)pLysS using SMDESGLPQLTSYDCEVNAPIQGSRNLLQGEELLRALDQVN peptide/100 uM alpha-ketoglutarate as substrate/cofactor incubated for 45 mins by MALDI assay

Hypoxia-inducible factor 1-alpha inhibitor, sequence (Q9NWT6 whole entry): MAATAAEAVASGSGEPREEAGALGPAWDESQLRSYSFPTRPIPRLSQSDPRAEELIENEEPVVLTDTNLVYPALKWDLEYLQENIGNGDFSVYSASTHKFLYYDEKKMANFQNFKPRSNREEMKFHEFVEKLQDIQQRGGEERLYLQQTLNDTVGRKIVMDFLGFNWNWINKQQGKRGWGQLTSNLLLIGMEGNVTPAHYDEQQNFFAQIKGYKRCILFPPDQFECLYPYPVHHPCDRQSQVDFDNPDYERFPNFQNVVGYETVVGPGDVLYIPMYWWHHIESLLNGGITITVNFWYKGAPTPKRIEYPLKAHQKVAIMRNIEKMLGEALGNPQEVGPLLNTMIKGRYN

SMILES	IC50 [µM]
O=C(O)c1ccnc(-c2cc(NC(=O)c3ccc(O)cc3)ccc2O)c1	> 500
COCC(=O)Nc1ccc(O)c(-c2cc(C(=O)O)ccn2)c1	> 500
Cc1cc(C(=O)Nc2ccc(O)c(-c3cc(C(=O)O)ccn3)c2)no1	473
CC(=O)Nc1ccc(O)c(-c2cc(C(=O)O)ccn2)c1	> 500
COc1cccc(CC(=O)Nc2ccc(O)c(-c3cc(C(=O)O)ccn3)c2)c1	> 500

Biological target: T1, Lysine-specific demethylase 4D (Homo sapiens, UniProt Q6B0I6)
T1 sequence (Q6B0I6 whole entry): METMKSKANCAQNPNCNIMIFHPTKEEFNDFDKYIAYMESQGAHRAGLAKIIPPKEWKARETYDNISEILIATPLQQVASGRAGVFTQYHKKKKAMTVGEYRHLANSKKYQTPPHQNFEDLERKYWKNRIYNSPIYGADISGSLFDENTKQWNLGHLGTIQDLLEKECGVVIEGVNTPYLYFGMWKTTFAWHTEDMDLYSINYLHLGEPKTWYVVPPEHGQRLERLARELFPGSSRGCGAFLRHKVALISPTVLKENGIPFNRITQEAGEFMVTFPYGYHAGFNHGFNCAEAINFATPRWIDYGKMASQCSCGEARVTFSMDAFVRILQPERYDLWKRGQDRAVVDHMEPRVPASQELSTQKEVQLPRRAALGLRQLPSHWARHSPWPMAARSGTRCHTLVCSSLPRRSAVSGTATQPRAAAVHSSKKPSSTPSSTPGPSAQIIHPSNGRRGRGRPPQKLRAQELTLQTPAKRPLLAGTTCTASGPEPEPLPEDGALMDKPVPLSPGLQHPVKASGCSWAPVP
Test: Inhibition of KDM4D (unknown origin) expressed in Escherichia coli using H3 (1 to 21 residues) K9Me3-GGK-Biotin KDM4 Cognate Ligand/10 uM alpha-ketoglutarate as substrate/cofactor preincubated for 5 mins followed by substrate addition measured after 20 mins by alphascreen assay

SMILES	IC50 [µM]
O=C(O)c1ccnc(-c2cc(NC(=O)c3ccc(O)cc3)ccc2O)c1	13
COCC(=O)Nc1ccc(O)c(-c2cc(C(=O)O)ccn2)c1	4.2
Cc1cc(C(=O)Nc2ccc(O)c(-c3cc(C(=O)O)ccn3)c2)no1	9.2
CC(=O)Nc1ccc(O)c(-c2cc(C(=O)O)ccn2)c1	14
COc1cccc(CC(=O)Nc2ccc(O)c(-c3cc(C(=O)O)ccn3)c2)c1	11

Biological target: T2, Lysine-specific demethylase 2A (Homo sapiens, UniProt Q9Y2K7)
T2 sequence (Q9Y2K7 whole entry): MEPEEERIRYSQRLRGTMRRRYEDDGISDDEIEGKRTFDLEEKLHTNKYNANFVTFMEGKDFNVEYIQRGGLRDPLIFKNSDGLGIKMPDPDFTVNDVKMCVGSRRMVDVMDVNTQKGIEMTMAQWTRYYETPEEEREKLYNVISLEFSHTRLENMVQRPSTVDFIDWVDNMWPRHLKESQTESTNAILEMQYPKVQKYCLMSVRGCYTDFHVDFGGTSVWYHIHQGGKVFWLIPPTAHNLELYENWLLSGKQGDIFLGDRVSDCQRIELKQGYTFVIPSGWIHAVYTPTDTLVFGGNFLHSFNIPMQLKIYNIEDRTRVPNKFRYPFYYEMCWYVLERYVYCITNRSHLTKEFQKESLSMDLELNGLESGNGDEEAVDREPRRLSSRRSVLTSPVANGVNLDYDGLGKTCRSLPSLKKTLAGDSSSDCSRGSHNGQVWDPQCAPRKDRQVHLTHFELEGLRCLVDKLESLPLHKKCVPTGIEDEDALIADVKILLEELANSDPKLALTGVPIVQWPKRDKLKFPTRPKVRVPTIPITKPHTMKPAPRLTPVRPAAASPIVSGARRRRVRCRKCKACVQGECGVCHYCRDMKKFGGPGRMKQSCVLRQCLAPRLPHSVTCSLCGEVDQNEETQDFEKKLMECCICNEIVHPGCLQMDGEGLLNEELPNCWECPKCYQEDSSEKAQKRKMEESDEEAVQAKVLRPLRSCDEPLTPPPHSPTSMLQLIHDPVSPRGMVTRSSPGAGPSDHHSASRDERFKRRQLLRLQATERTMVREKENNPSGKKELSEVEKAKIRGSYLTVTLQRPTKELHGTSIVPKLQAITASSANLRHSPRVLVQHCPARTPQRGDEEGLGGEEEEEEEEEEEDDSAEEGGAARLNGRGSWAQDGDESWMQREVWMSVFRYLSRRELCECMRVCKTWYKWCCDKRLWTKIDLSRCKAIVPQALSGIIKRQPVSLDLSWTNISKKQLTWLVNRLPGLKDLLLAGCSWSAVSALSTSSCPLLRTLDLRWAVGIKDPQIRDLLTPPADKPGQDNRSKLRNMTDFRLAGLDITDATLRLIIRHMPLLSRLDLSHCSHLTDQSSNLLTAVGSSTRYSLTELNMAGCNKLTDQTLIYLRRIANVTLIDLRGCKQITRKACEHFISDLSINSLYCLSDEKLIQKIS
Test: Inhibition of KDM2A (unknown origin) expressed in Escherichia coli using Biotin H3 (28 to 48 residues) Me2 KDM2A Cognate Ligande/10 uM alpha-ketoglutarate as substrate/cofactor preincubated for 15 mins followed by substrate addition measured after 30 mins by alphascreen assay

SMILES	IC50 [µM]
O=C(O)c1ccnc(-c2cc(NC(=O)c3ccc(O)cc3)ccc2O)c1	89
COCC(=O)Nc1ccc(O)c(-c2cc(C(=O)O)ccn2)c1	91
Cc1cc(C(=O)Nc2ccc(O)c(-c3cc(C(=O)O)ccn3)c2)no1	76
CC(=O)Nc1ccc(O)c(-c2cc(C(=O)O)ccn2)c1	> 100
COc1cccc(CC(=O)Nc2ccc(O)c(-c3cc(C(=O)O)ccn3)c2)c1	89

Reference: ChEMBL document CHEMBL3774347, “Docking and Linking of Fragments To Discover Jumonji Histone Demethylase Inhibitors” (J Med Chem, 2016)
